Test results reported in patent US20140235587A1, “SUBSTITUTED PYRAZOLES AS SPHINGOSINE RECEPTOR MODULATORS” (Allergan, Inc., priority 2013, published 2014).

Molecular target: T1, human S1P1 receptor (Homo sapiens, UniProt P21453)
T1 construct: expressed in transfected cells; membranes used
Experiment: GTP γ35S binding assay for S1P1 activity
Format: biochemical
Settings: membranes of cells stably expressing S1P1; test compounds 0.08 to 5,000 nM; 30 min at 25° C.; read-out: S1P1 EC50 (Activity potency: S1P1 receptor from GTP γ35S)
Experimental: Compounds were tested for S1P1 activity using the GTP γ^35S binding assay. These compounds may be assessed for their ability to activate or block activation of the human S1P1 receptor in cells stably expressing the S1P1 receptor. GTP γ^35S binding was measured in the medium containing (mM) HEPES 25, pH 7.4, MgCl2 10, NaCl 100, dithitothreitol 0.5, digitonin 0.003%, 0.2 nM GTP γ^35S, and 5 μg membrane protein in a volume of 150 μl. Test compounds were included in the concentration range from 0.08 to 5,000 nM unless indicated otherwise. Membranes were incubated with 100 μM 5′-adenylylimmidodiphosphate for 30 min, and subsequently with 10 μM GDP for 10 min on ice. Drug solutions and membrane were mixed, and then reactions were initiated by adding GTP γ^35S and continued for 30 min at 25° C. Reaction mixtures were filtered over Whatman GF/B filters under vacuum, and washed three times with 3 mL of ice-cold buffer (HEPES 25, pH7.4, MgCl2 10 and NaCl 100). Filters were dried and mixed with scintillant, and counted for ^35S activity using a β-counter. Agonist-induced GTP γ^35S binding was obtained by subtracting that in the absence of agonist. Binding data were analyzed using a non-linear regression method. In case of antagonist assay, the reaction mixture contained 10 nM S1P in the presence of test antagonist at concentrations ranging from 0.08 to 5000 nM.

T1 sequence (P21453 whole entry): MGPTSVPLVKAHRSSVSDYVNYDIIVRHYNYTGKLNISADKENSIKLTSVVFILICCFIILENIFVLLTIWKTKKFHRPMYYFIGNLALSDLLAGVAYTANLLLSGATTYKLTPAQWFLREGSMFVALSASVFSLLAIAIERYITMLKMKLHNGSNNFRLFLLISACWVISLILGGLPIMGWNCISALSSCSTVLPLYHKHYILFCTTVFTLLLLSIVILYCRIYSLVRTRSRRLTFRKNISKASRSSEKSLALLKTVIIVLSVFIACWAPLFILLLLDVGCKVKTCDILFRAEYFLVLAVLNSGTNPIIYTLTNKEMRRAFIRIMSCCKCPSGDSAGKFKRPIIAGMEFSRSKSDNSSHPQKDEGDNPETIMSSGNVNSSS

EC50	SMILES
5.4 nM	CCN1N=C(c2nc(-c3cc(F)c(CNCCCP(=O)(O)O)c(F)c3)no2)CC1c1ccccc1 (centres unmarked) [Compound 6, [3-({4-[5-(1-ethyl-5-phenyl-4,5-dihydro-1H-pyrazol-3-yl)-1,2,4-oxadiazol-3-yl]-2,6-difluorobenzyl}amino)propyl]phosphonic acid]
21 nM	CCc1cc(-c2noc(C3=NN(CC)C(c4ccccc4)C3)n2)ccc1CNCCC(=O)O (centres unmarked) [Compound 11, 3-({2-ethyl-4-[5-(1-ethyl-5-phenyl-4,5-dihydro-1H-pyrazol-3-yl)-1,2,4-oxadiazol-3-yl]benzyl}amino)propanoic acid]
25 nM	CCN1N=C(c2nc(-c3ccc(CNCCCP(=O)(O)O)cc3)no2)CC1c1ccccc1 (centres unmarked) [Compound 4, [3-({4-[5-(1-ethyl-5-phenyl-4,5-dihydro-1H-pyrazol-3-yl)-1,2,4-oxadiazol-3-yl]benzyl}amino)propyl]phosphonic acid]
42 nM	CCN1N=C(c2nc(-c3cc(F)c(CNCCC(=O)O)c(F)c3)no2)CC1c1ccccc1 (centres unmarked) [Compound 7, 3-({4-[5-(1-ethyl-5-phenyl-4,5-dihydro-1H-pyrazol-3-yl)-1,2,4-oxadiazol-3-yl]-2,6-difluorobenzyl}amino)propanoic acid]
274 nM	CCN1N=C(c2nc(-c3ccc(CNCCC(=O)O)cc3)no2)CC1c1ccccc1 (centres unmarked) [Compound 5, 3-({4-[5-(1-ethyl-5-phenyl-4,5-dihydro-1H-pyrazol-3-yl)-1,2,4-oxadiazol-3-yl]benzyl}amino)propanoic acid]
65 nM	CCCN1N=C(c2nc(-c3ccc(CNCCC(=O)O)cc3)no2)CC1c1ccccc1 (centres unmarked) [Compound 12, 3-({4-[5-(5-phenyl-1-propyl-4,5-dihydro-1H-pyrazol-3-yl)-1,2,4-oxadiazol-3-yl]benzyl}amino)propanoic acid]
6.5 nM	CN1N=C(c2nc(-c3ccc(CNCCCP(=O)(O)O)cc3)no2)CC1c1ccccc1 (centres unmarked) [Compound 2, [3-({4-[5-(1-methyl-5-phenyl-4,5-dihydro-1H-pyrazol-3-yl)-1,2,4-oxadiazol-3-yl]benzyl}amino)propyl]phosphonic acid]
2.6 nM	CCc1cc(-c2noc(C3=NN(CC)C(c4ccccc4)C3)n2)ccc1CNCCCP(=O)(O)O (centres unmarked) [Compound 10, [3-({2-ethyl-4-[5-(1-ethyl-5-phenyl-4,5-dihydro-1H-pyrazol-3-yl)-1,2,4-oxadiazol-3-yl]benzyl}amino)propyl]phosphonic acid]
18 nM	CCCN1N=C(c2nc(-c3ccc(CNCCCP(=O)(O)O)cc3)no2)CC1c1ccccc1 (centres unmarked) [Compound 1, [3-({4-[5-(5-phenyl-1-propyl-4,5-dihydro-1H-pyrazol-3-yl)-1,2,4-oxadiazol-3-yl]benzyl}amino)propyl]phosphonic acid]
49 nM	CCN1N=C(c2nc(-c3ccc(CNCCC(=O)O)cc3F)no2)CC1c1ccccc1 (centres unmarked) [Compound 9, 3-({4-[5-(1-ethyl-5-phenyl-4,5-dihydro-1H-pyrazol-3-yl)-1,2,4-oxadiazol-3-yl]-3-fluorobenzyl}amino)propanoic acid]
11 nM	CCN1N=C(c2nc(-c3ccc(CNCCCP(=O)(O)O)cc3F)no2)CC1c1ccccc1 (centres unmarked) [Compound 8, [3-({4-[5-(1-ethyl-5-phenyl-4,5-dihydro-1H-pyrazol-3-yl)-1,2,4-oxadiazol-3-yl]-3-fluorobenzyl}amino)propyl]phosphonic acid]
